Experimental data reported in article PMC3744530, “CTA095, a Novel Etk and Src Dual Inhibitor, Induces Apoptosis in Prostate Cancer Cells and Overcomes Resistance to Src Inhibitors” (PLoS ONE, 2013).

Columns and labels:
[1] = test system: caspase3/7 in PC3 cells; assay: Caspase-3/7 activity (Apo-ONE Homogeneous assay); assay type: cell-based, human; conditions: PC3, 0–10 μM, 24 h
Procedure: For caspase 3/7 activities, PC3 cells were seeded at 5,000 cells/well in 96-well plate overnight. Then the cells were treated with 0–10 μM CTA095 for 24 h. Caspase-3/7 activities were measured using the Apo-ONE Homogeneous Caspase-3/7 Assay kit (Promega, Madison, WI) according to the manufacturer's instruction. For caspase 9 activity, PC3 cells were seeded in 10 mm tissue culture plate and grew to 50% confluence. Cells were then treated with 0–10 μM CTA095 for 24 h. Cells were harvested and caspase 9 activity was measured using a Western blot with an anti-caspase 9 antibody.
Figure 7 Induction of apoptosis of PC3 cells following treatment with CTA095. PC3 cells were seeded at 10^6 cells/ml (2 ml) in a 6-well plate overnight and then treated with CTA095 at the indicated concentrations for 24 h. Cell cycle arrest was analyzed using PI staining (A). Apoptosis was analyzed using Annexin-V FITC apoptosis detection kit (B). Caspase 9 activation was measured using western blot (D). For caspase 3/7 activity, PC3 cells were seeded at 5000 cells/well in 96 well plate overnight and treated with CTA095 at 0–10 μM for 24 h. Caspase-3/7 activities were measured using the Apo-ONE Homogeneous Caspase-3/7 Assay kit (Promega, Madison, WI) according to the manufacturer's instruction. Columns, mean; bars, standard deviation, n = 3. […]

[2] = test system: Src phosphorylation in PC3-Etk cells; assay: Western blot of Src phosphorylation in intact cells; assay type: cell-based, human; conditions: 5 μM and 10 μM, 24 h
Procedure: (§1) Western blotting was performed as described previously. Proteins were detected using the following antibodies: β-actin (Sigma-Aldrich, Saint Louis, MO), Etk (Santa Cruz Inc., Santa Cruz, CA), pEtk; Src, pSrc; Stat3, pStat3. For phospho-Etk, cells were pre-treated with 100 μM pervanadate for 15 min before harvest.
(§2) Figure 4 Inhibition of cell signaling in PC3 cells following treatment with CTA095. Cells were grown in 10 mm plate to 50% confluence and treated with CTA095. Cells were harvested after 24 h. pEtk, Etk, pSrc, Src, pStat3, Stat3, pAkt and Akt levels were measured using the corresponding antibodies by Western blot. One of three similar experiments depicted.

[3] = test system: STAT3 phosphorylation in PC3 cells; assay: Western blot of STAT3 phosphorylation; assay type: cell-based, human; conditions: 24 h
Procedure: as §1, §2

[4] = test system: PC3 cells; assay: PC3 cell wound healing assay; assay type: cell-based, human; conditions: 5 μM, after 48 h
Procedure: PC3 cells were grown in 6-well plate to 60% confluency. Then wounds were made using a tip and treated with CTA095 (0 and 5 μM). Cell migration (wound healing) was visualized under microscope at the indicated times.
Figure 8 Inhibition of tube formation and cell migration by CTA095. Inhibition of vascular tube formation of HUVEC endothelial cells (A) and inhibition of migration (wound healing) of PC3 human prostate cancer cells (B) by CTA095. (A) HUVEC cells were seed on mitrogel and treated with CTA095 (0 and 5 μM) for 6 h. Vascular tube formation was visualized using microscope. (B) PC3 cells were grown in 6-well plate to 60% confluency. Then wounds were made and treated with CTA095 (0 and 5 μM). Cell migration (wound healing) was visualized under microscope at the indicated times.

[5] = biological target: Itk (Homo sapiens, UniProt Q08881); assay: Kinase inhibition assay (TLC); assay type: biochemical
Procedure: (§3) Kinase inhibition was measured using thin-layer-chromatography (TLC). Briefly, purified kinases (20 nM), the corresponding substrate (500 µM, TSFYGRH for Etk, YIYGSFK for the other kinases), and CTA095 (0–10 µM) were incubated in a kinase reaction (100 mM Hepes, pH 7.4, 10 mM MnCl2, 10 mM MgCl2, 1 mM DTT) for 5 min, and the reaction was started by adding 5 μCi ^33P-labeled ATP. The reaction (10 µl) was incubated at room temperature for 1 h and was stopped by adding 10 μL H3PO4. The radioactivity of the peptide substrate was analyzed using TLC as previously described.
(§4) In addition to the Btk family tyrosine kinases, the inhibitory activity of CTA095 to other kinases, including Lyn, Axl, Mer, EGFR, and Abl, was investigated using a TLC assay.

[6] = biological target: Lyn (Homo sapiens, UniProt P07948); assay: Kinase inhibition assay (TLC); assay type: biochemical
Sequence of Lyn (P07948 whole entry, species assumed): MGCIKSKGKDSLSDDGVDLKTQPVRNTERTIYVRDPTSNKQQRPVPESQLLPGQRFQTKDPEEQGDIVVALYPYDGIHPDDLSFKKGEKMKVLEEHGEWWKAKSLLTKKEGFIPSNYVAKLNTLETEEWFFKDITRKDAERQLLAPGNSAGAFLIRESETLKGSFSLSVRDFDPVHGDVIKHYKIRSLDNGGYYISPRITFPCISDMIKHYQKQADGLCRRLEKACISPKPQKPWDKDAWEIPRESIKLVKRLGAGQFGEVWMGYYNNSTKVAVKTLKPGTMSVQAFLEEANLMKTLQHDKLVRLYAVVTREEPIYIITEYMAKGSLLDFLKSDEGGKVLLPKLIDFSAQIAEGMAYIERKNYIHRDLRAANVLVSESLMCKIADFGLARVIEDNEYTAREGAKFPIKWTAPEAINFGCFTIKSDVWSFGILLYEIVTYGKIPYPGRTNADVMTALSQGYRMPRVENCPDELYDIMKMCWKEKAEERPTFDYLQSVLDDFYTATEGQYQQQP
Procedure: as §3, §4

[7] = biological target: T1, Mer (Homo sapiens, UniProt Q12866); assay: Kinase inhibition assay (TLC); assay type: biochemical
T1 construct: purchased Millipore Inc (Dundee, UK)
T1 sequence (Q12866 21-999): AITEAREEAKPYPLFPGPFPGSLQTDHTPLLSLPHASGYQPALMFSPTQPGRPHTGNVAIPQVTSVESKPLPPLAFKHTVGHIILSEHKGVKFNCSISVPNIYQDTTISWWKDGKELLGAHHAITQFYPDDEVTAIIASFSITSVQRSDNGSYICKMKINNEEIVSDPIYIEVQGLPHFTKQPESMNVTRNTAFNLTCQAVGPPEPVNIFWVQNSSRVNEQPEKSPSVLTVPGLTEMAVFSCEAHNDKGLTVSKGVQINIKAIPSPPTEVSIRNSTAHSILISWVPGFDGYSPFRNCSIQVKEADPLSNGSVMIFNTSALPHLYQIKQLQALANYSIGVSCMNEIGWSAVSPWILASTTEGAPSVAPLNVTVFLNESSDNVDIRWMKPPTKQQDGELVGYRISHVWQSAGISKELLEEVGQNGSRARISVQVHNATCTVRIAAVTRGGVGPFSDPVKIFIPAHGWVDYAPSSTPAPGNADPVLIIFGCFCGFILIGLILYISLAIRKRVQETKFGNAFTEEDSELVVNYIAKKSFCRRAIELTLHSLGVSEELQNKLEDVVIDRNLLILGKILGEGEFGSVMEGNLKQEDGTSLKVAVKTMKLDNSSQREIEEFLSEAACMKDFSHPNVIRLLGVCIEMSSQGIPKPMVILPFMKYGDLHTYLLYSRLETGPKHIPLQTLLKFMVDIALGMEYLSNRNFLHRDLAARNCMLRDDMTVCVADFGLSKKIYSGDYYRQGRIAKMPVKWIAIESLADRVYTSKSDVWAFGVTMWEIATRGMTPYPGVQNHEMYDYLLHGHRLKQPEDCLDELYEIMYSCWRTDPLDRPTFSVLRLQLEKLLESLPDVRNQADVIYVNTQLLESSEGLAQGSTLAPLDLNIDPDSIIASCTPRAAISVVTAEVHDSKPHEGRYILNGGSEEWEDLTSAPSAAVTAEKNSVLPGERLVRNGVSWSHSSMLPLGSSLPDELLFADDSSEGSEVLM
Procedure: as §3, §4

[8] = biological target: EGFR (Homo sapiens, UniProt P00533); assay: Kinase inhibition assay (TLC); assay type: biochemical
Sequence of EGFR (P00533 25-1210, species assumed): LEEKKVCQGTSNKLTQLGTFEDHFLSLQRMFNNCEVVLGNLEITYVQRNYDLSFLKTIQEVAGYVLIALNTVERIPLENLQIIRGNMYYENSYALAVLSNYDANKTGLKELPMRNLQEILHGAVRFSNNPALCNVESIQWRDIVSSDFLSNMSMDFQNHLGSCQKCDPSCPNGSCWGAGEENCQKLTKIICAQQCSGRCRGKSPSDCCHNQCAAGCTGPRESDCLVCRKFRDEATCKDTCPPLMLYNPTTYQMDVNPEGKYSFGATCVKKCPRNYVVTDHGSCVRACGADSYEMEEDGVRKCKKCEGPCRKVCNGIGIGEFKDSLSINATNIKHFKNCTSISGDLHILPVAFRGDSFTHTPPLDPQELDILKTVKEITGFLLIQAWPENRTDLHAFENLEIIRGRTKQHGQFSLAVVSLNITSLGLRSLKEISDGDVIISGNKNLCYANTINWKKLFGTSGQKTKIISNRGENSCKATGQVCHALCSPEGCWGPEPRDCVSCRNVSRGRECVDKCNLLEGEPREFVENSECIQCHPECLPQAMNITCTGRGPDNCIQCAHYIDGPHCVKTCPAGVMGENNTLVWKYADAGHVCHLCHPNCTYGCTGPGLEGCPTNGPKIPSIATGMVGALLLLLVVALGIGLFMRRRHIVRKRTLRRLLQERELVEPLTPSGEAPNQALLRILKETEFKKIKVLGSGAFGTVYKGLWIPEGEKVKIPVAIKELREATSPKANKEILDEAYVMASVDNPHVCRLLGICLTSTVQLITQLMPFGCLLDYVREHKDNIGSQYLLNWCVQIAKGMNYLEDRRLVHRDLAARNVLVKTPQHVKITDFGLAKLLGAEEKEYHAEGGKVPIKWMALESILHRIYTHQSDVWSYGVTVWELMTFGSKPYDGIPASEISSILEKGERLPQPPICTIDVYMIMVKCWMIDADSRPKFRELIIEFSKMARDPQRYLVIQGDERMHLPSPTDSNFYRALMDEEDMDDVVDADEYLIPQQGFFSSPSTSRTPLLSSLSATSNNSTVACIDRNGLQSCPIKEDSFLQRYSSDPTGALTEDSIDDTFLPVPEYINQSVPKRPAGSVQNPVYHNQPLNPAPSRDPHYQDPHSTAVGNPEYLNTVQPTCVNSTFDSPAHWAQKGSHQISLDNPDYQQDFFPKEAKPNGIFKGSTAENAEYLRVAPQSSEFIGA
Procedure: as §3, §4

[9] = biological target: Abl (Homo sapiens, UniProt P00519); assay: Kinase inhibition assay (TLC); assay type: biochemical
Sequence of Abl (P00519 whole entry, species assumed): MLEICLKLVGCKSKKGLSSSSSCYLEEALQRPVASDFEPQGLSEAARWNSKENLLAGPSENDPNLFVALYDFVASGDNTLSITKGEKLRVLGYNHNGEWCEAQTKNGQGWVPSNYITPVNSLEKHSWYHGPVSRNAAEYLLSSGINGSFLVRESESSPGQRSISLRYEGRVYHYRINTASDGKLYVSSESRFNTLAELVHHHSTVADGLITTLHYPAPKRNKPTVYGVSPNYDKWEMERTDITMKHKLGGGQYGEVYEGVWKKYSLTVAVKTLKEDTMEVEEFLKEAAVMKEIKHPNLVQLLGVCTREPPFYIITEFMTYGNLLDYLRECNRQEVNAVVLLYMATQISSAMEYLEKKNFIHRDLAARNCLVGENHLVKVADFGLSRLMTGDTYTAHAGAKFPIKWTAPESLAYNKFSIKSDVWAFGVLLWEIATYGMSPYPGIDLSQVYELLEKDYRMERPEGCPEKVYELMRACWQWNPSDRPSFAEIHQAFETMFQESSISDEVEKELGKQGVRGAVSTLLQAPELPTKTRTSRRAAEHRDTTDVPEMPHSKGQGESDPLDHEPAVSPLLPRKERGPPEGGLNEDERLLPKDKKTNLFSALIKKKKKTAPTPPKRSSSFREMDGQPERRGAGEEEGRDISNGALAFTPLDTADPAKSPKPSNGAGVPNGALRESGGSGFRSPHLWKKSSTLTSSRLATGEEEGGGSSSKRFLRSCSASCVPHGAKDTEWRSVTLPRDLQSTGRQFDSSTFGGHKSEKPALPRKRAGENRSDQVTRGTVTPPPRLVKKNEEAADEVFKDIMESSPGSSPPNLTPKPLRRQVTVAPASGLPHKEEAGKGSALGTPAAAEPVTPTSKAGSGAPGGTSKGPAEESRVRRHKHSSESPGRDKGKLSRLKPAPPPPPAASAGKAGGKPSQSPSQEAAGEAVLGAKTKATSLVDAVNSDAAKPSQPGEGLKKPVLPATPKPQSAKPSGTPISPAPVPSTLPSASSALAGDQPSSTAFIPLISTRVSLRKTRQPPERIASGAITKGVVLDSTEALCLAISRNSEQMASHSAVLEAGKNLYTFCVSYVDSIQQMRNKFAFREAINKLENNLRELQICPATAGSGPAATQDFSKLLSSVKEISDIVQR
Procedure: as §3, §4

[10] = biological target: Axl (Homo sapiens, UniProt P30530); assay: Kinase inhibition assay (TLC); assay type: biochemical
Sequence of Axl (P30530 26-894, species assumed): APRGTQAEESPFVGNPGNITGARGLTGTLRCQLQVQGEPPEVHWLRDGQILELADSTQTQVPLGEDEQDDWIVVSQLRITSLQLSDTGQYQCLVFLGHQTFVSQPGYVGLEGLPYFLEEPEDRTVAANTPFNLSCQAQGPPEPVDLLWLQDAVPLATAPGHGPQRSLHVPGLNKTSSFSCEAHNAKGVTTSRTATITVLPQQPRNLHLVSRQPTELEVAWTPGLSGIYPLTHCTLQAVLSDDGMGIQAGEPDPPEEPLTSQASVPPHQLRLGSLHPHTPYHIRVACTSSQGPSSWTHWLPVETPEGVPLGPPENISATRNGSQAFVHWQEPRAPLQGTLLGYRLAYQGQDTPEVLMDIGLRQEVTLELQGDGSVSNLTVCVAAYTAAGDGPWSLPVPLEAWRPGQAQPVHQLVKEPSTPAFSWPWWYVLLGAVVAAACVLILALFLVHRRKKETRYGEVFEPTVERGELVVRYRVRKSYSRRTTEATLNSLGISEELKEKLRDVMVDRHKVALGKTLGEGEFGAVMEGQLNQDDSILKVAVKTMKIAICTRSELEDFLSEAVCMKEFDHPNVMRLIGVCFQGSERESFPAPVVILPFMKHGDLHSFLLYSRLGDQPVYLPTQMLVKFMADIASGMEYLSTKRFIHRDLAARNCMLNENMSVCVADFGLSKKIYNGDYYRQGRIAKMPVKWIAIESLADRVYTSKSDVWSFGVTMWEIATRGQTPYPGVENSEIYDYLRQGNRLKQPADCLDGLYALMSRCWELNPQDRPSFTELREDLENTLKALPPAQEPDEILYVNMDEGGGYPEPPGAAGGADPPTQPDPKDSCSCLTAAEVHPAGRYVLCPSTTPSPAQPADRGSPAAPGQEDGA
Procedure: as §3, §4

[11] = test system: Myc mRNA in PC3-AZD20 cells; assay: Real-time PCR of Myc mRNA; assay type: cell-based, human; conditions: PC3-AZD20, 10 μM, RT-PCR
Procedure: PC3-AZD20 cells were seeded at 10^6 cells/well in 6 well plates overnight. The cells were treated with AZD0530 or CTA095 at 10 μM. Apoptosis was analyzed using Annexin-V FITC apoptosis detection kit. The mRNA levels of Myc and BCL2 were measured using real-time PCR. pEtk, Etk, pSrc, Src, pStat3, Stat3, Myc and BCL2 levels were measured using the corresponding antibodies through a Western blot.
Figure 12 CTA095 induces apoptosis in Src inhibitor resistant prostate cancer cells through Myc and BCL2 inhibition. PC3-AZD20 (PC3 cell resistant to 20 μM AZD0530) cells were seeded at 10^6 cells/well in 6 well plates overnight. The cells were treated with AZD0530 or CTA095 at 10 μM. Apoptosis was analyzed using Annexin-V FITC apoptosis detection kit (A). The mRNA levels of Myc and BCL2 were measured using real-time PCR (B). pEtk, Etk, pSrc, Src, pStat3, Stat3, Myc and BCL2 levels were measured using the corresponding antibodies through Western blot (C). Columns, mean; bars, standard deviation, n = 3.

In the case of `O=c1[nH]c2cc3nc(-c4ccc5oc6ccccc6c5c4)n(CCCN4CCCCC4)c3cc2nc1-c1ccccc1` [CTA095, 2-(dibenzo[b,d]furan-2-yl)-7-phenyl-1-(3-(piperidin-1-yl)propyl)-1H-imidazo[4,5-g]quinoxalin-6(5H)-one], the “activation of caspase3/7” value [1] is reported as “dose dependent activation”, the Src phosphorylation [2] is reported as “significantly inhibited” and the STAT3 phosphorylation [3] is reported as “also inhibited”. The “wound healing of PC3 cells” value [4] was “greatly inhibited”, the IC50 [5] was > 10 µM and the IC50 [6] was > 10 µM. For the same compound, the IC50 [7] was > 10 µM, the IC50 [8] was > 10 µM and the IC50 [9] was > 10 µM. For the same compound, the IC50 [10] was > 10 µM and the “Myc mRNA level” value [11] was “significantly down regulated”.
